Experimental data reported in patent US10660908B2, “Pharmaceutical spray composition comprising a vitamin D analogue and a corticosteroid” (LEO Pharma A/S, priority 2010, dated 2020).
“Also recorded” adds a separate entry of the source.

Columns and labels:
[1] = Solubility of calcipotriol and BDP in different propellant mixtures (Example 1); format: physicochemical; conditions: for dissolution in propellant: 100% DME as the propellant; for dissolution in propellant mixture: ratio of butane to DME of 4:3, in both the propellant and vehicle phases, 67 mg BDP, 13 mg calcipotriol, 20 g vehicle
Procedure: 2×12 100 ml glass bottles fitted with a valve and actuator were filled with compositions containing 67 mg BDP, 13 mg calcipotriol, 20 g vehicle (comprising liquid paraffin, white soft paraffin and PPG-15-stearyl ether) and varying amounts of DME and butane as shown in Table 1. The composition formed a continuous phase and a dispersed phase presumed to be composed of long-chain alkanes (with ≥50 carbon atoms in the chain) present in the white soft paraffin. The dispersed phase sedimented in the bottom portion of the composition on standing. Thus, the top portion of the composition contained only the continuous phase, while the bottom portion of the composition was composed of a mixture of continuous and dispersed phases.
The sprayed samples were placed on a water bath at 40° C. for 5 hours until the propellant had evaporated. The samples were then cooled for 1 hour at room temperature.
Column: Agilent Zorbas Eclipse Plus C18, 150×4.6 mm, 3.5 μm
Mobile phase: acetonitrile/methanol/0.01M (NH4)2HPO4, pH 6.0, 25:45:30 (v/v/v)
Detection: […]. Calculation at 264 nm for calcipotriol and 240 nm for BDP

[2] = Physical stability by polarized light microscopy (Example 1); format: physicochemical; conditions: compositions left to stand for 4 months
Procedure: The physical stability of calcipotriol and BDP in the composition was determined by polarized light microscopy.

[3] = Chemical stability of calcipotriol/BDP in the presence of different inner lacquers (Example 6); format: physicochemical
Procedure: Batches of Composition A prepared as described in Example 2 and placed in aluminium spray containers provided with two different types of inner lacquer, an epoxyphenol based lacquer (HOBA 7940/7407) and a polyimide-polyamide based lacquer (HOBA 8460), respectively, were tested for chemical stability of the active ingredients after standing for 1 month at 40° C. by spraying samples of each batch into a glass and subjecting them to HPLC by the procedure described in Example 3.

[4] = Chemical stability of calcipotriol/BDP in the presence of different gasket materials (Example 8); format: physicochemical
Procedure: In order to test the compatibility of the composition with various gasket materials, samples were prepared with Composition E, see Example 2, filled in aluminum spray containers with a polyamide-polyimide inner lacquer and closed with a valve cup crimped to the container body. To each container, 10 pieces or an equivalent amount of gasket test material were added to the spray container and allowed to be submerged in the composition. The containers were stored at 25° C. or 40° C. and tested after 1 and 3 months at 40° C., and after 3 months at 25° C.
After storage, the composition was sprayed out in a glass bottle, and the propellants were allowed to evaporate for 2 days. The non-volatile part of the composition was analyzed for calcipotriol, betamethasone dipropionate and their related organic impurities.
The amount of calcipotriol was determined by HPLC after liquid extraction followed by a controlled isomerization at 50° C. Methyl testosterone was used as the internal standard. The following conditions were used for the HPLC analysis:
Column: LiChrospher RP-18, 125×4 mm, 5 μm
Mobile phase: Acetonitrile/methanol/0.01M (NH4)2PO4 (20:50:30)
Run time: Approx. 9 minutes
The organic impurities related to calcipotriol were determined by HPLC after liquid extraction, using the following conditions:
Column: YMC ODS-AM, 150×4.6 mm, 3 μm
Run time: 2 times the retention time of calcipotriol
The amount of betamethasone dipropionate was determined by HPLC after liquid extraction, using beclomethasone dipropionate as internal standard and the following HPLC conditions:
Column: Superspher RP-18, 75×4 mm, 4 μm
Mobile phase: Acetonitrile/water (50:55)
The organic impurities related to betamethasone dipropionate were extracted by liquid extraction and analyzed by HPLC using the following conditions:
Mobile phase: Acetonitrile/0.05M (NH4)2PO4 pH 7 (50:55)
Run time: Approx. 20 minutes

[5] = one study, M. Hannuksela et al., Contact Dermatitis 1, 1975; cited from earlier work
[6] = Composition E in contact with Buna and NPR gaskets
[7] = Composition E in contact with Viton and EPDM gaskets

## CCC(=O)OCC(=O)[C@@]1(OC(=O)CC)[C@@H](C)C[C@H]2[C@@H]3CCC4=CC(=O)C=C[C@]4(C)[C@@]3(F)[C@@H](O)C[C@@]21C [betamethasone dipropionate]
[1]
  dissolution in propellant: completely dissolved
  dissolution in propellant mixture: completely dissolved
[2]
  physical stability (recrystallization): neither calcipotriol or BDP recrystallize
[3]; epoxyphenol vs polyimide-polyamide lacquer
  chemical stability: effect of the composition of the inner lacquers: much less affected
[4]; [6]
  stability (in words): decomposition
[4]; [7]
  stability (in words): did not have negative impact

## C=C1/C(=C\C=C2/CCC[C@]3(C)[C@@H]([C@H](C)/C=C/[C@@H](O)C4CC4)CC[C@@H]23)C[C@@H](O)C[C@@H]1O [calcipotriol, Calcipotriol]
[1]
  dissolution in propellant: completely dissolved
  dissolution in propellant mixture: completely dissolved
[2]
  physical stability (recrystallization): neither calcipotriol or BDP recrystallize
[3]; epoxyphenol based inner lacquer of the spray container
  chemical stability (in words): unacceptably degraded; also recorded: unacceptable chemical degradation
[3]; polyimide-polyamide based inner lacquer
  chemical stability (in words): acceptable; also recorded: satisfactory
[4]; [6]
  stability (in words): decomposition
[4]; [7]
  stability (in words): did not have negative impact

## CC(O)CO (centres unmarked) [propylene glycol]
[5]
  number of irritant reactions: 12.5%
